Source: PubChem BioAssay AID1963597 (National Center for Advancing Translational Sciences (NCATS), 2024)

Tested on: human liver microsomes, metabolic stability half-life
Assay: NCATS Human Liver Microsomal (HLM) Stability Profiling
Conditions: higher = more stable; screened at 1 µM (by protocol)
Source text: Assay submitter (PI): Dr. Pranav Shah
NIH Center for Advancing Translational Sciences
Pharmacokinetic issues were the leading cause of drug attrition, accounting for approximately 40% of all cases before the turn of the century. To this end, several high-throughput in vitro assays like microsomal stability have been developed to evaluate the pharmacokinetic profiles of compounds in early stages of drug discovery. At NCATS, a single-point rat liver microsomal (RLM) stability assay is used as a Tier I assay, while human liver microsomal (HLM) stability is employed as a Tier II assay. While it is beneficial to have compound libraries screened for HLM stability, the increasing magnitude of hits routinely generated, and the time- and re-source-intensive nature of the assay makes it important to find alternatives. One strategy is to rely on in silico models that have been developed using data generated from these assays. Herein, we describe the development of an HLM stability prediction model using our in-house dataset of ~7,000 compounds, employing both traditional and advanced machine learning methods. Additionally, the strong correlation between our RLM and HLM data was further reinforced by the fact that our HLM model performance improved after adding RLM stability predictions as an input descriptor. […] The best model along with a subset of our dataset has been made publicly accessible on the NCATS@ADME website for the benefit of the greater drug discovery community.
Microsomal Stability Assay
The substrate depletion method, also called the in vitro t1/2 method was used to analyze test compounds. Incubation and liquid handling were carried out using a previously described method (Shah et al., 2016). Briefly, each reaction mixture (110 µL) consisted of a test article (1 µM), human liver microsomes (0.5 mg/mL), and NADPH regenerating system in phosphate buffer at pH 7.4. Samples were incubated in 384-well plates at 37 degrees C for 0, 5, 10, 15, 30 and 60 min. At each time point, 10 µL of the incubation mixture was aspirated into another 384-well plate which contained cold acetonitrile (ACN) with internal standard (albendazole). All plates were centrifuged at 3000 rpm for 20 min at 4 degrees C, and the supernatants were transferred to a 384-well injection plate. Sample quantification and analysis was performed using a previously described method (Shah et al., 2016, Siramshetty et al., 2020).
1: Shah, P. et al. An Automated High-Throughput Metabolic Stability Assay Using an Integrated High-Resolution Accurate Mass Method and Automated Data Analysis Software. Drug Metab Dispos 44, 1653-1661 (2016).
2: Siramshetty et al. Retrospective assessment of rat liver microsomal stability at NCATS: data and QSAR models. Sci Rep 26;10(1):20713 (2020).

Row | Structure (SMILES) | half-life [min]
1 | Cc1nc2c3ccccc3nc(NNC(=O)CCC(=O)N3CCN(c4cccc(Cl)c4)CC3)n2n1 | 10.9
2 | O=C(O)c1ccc(CN2CC(COc3ccccc3)C3(C2)CN(c2ccccc2)C3)cc1 (configuration not stated) | 64.8
3 | Cc1cc2c(F)c(Oc3ncnn4cc(OCC(C)O)c(C)c34)ccc2[nH]1 (configuration not stated) | > 120
4 | CC(C)(C)NCC(O)COc1ccc(NC(=O)NC2CCCCC2)cc1 (configuration not stated) | > 120
5 | Nc1nc(NCC2CCC(CNS(=O)(=O)c3cccc4ccccc34)CC2)nc2ccccc12 (configuration not stated) | 1.35
6 | CN1C(C)(C)CCCC1(C)C | > 120
7 | NC1CCC(Nc2cc(-c3cccc(NCc4cccc(F)c4)n3)c(Cl)cn2)CC1 (configuration not stated) | > 120
8 | CCOC(=O)Cn1cccc1-c1nc(-c2ccc(OC)cc2)c(-c2ccc(OC)cc2)s1 | 0.96
9 | CC(C)c1ccc(-n2ncc3c(=O)n(CC(=O)Nc4cc(F)ccc4Cl)cnc32)cc1 | 23.9
10 | COCc1c(Cl)ccc2c1CC[C@H]2c1ncc[nH]1 | 115
11 | CCOP(=S)(OCC)Oc1ccc2c(C)c(Cl)c(=O)oc2c1 | 5.07
12 | CC(C)Cc1ccc(CC(=O)O)cc1 | > 120
13 | COc1ccc(OC)c(C2C(C#N)=C(N)Oc3n[nH]c(-c4ccc5ccccc5c4)c32)c1 (configuration not stated) | > 120
14 | O=C(O)COC(=O)Cc1ccccc1Nc1c(Cl)cccc1Cl | 2.83
15 | Cc1ccccc1C(=O)N1CCC(C(=O)N2CCC(N3Cc4ccccc4C3=O)CC2)CC1 | 93.1
16 | N#Cc1cccc(C(=O)Nc2ccc3ncnc(N4CCCCC4)c3c2)c1 | 12.4
17 | CCOC(=O)c1ccc(O)cc1 | 61
18 | CCOC(=O)[C@H](CCc1ccccc1)N[C@H]1CS[C@H](c2cccs2)CN(CC(=O)O)C1=O | 6.54
19 | Nc1ccc2cc3ccc(N)cc3nc2c1 | 105
20 | COc1cnc(-c2ccc(Cn3c(CC(C)(C)C(=O)O)c(SC(C)(C)C)c4cc(OC[C@@H]5Cc6ccccc6N5C(C)=O)ccc43)cc2)nc1 | 12.1
21 | COc1cc(C(C)=O)ccc1OCCCN1CCC(c2noc3cc(F)ccc23)CC1 | 25.1
22 | COc1cc(Nc2nc3ccccc3nc2NS(=O)(=O)c2ccc(NC(=O)c3ccc(OC)c(C)c3)cc2)cc(OC)c1 | > 120
23 | Cc1ccccc1-n1c(SCc2ccc(Cl)cc2)nc2[nH]ncc2c1=O | 53.2
24 | O=c1cc(OCc2ccc(F)cc2)ccn1-c1ccc(OCCN2CCCC2)cc1 | > 120
25 | COc1cc2cc(CN3CCC(N(C)C)C3)c(-c3cccc(Cl)c3)nc2cc1OC (configuration not stated) | > 120
26 | O=C(Cn1ncc2c([nH]c3ccccc32)c1=O)NCCCN1CCN(c2ccccc2)CC1 | > 120

Row | Structure (SMILES) | half-life [min]
27 | CCCCOCc1cc(CN2CCN(c3cccc(Cl)c3)CC2)c(O)c2ncccc12 | 10.3
28 | Cn1c(=O)c(F)c(Nc2ccc(I)cc2F)c2c(=O)n(CC(O)CO)cnc21 (configuration not stated) | > 120
29 | CCN1CCN(C(=O)Cc2cccn2-c2ccc(F)cc2)CC1 | 114
30 | Cn1ncc(Cl)c1-c1cc(C(=O)NC(CN)Cc2ccc(F)c(F)c2)oc1Cl (configuration not stated) | > 120
31 | OCCN1CCN(CCCN2c3ccccc3C=Cc3ccccc32)CC1 | > 120
32 | CCC(CC)n1ccc2c(C(=O)NCc3c(C)cc(C)[nH]c3=O)cc(C#N)cc21 | 3.94
33 | Cn1nc(C(C)(C)C)cc1C(=O)NC(Cc1cccc(Cl)c1)C(=O)NCC#N (configuration not stated) | 67.4
34 | CC(C)(C)NCc1cc(Nc2ccnc3cc(Cl)ccc23)c2c(c1O)CCCC2 | > 120
35 | CN(C)CCN(Cc1ccc(Cl)cc1)c1ccccn1 | 18.8
36 | COc1cc2c(C(=O)N(C)c3cccc(C(F)(F)F)c3)cn(CC(C)C)c(=O)c2cc1OC | 0.93
37 | Nc1ccn([C@@H]2O[C@H](CO)[C@H](O)C2(F)F)c(=O)n1 | 22.3
38 | O=c1c(-c2ccccc2)c1-c1ccccc1 | 3.57
39 | CCCCOCCOC(=O)c1cccnc1 | 0.66
40 | CCOc1cc(=O)n2c(c1C(=O)Nc1ccc(S(N)(=O)=O)cc1)CCCC2 | > 120
41 | Cc1ccc(S(=O)(=O)NC2CCC(C(C)(C)C)CC2)cc1 (configuration not stated) | 3.92
42 | COCCCNC(=O)CCC(=O)NNc1nc2ccccc2c2nc(-c3ccccc3)nn12 | > 120
43 | COc1cccc(CCc2ccccc2OCC(CN(C)C)OC(=O)CCC(=O)O)c1 (configuration not stated) | 38.8
44 | COP(N)(=O)SC (configuration not stated) | 51.6
45 | COc1ccc(CNC(=O)C2CCCN(c3nnc(C)c4c(C)n(-c5ccc(C)cc5)nc34)C2)cc1 (configuration not stated) | 5.53
46 | COc1ccc(CN(CCN(C)C)c2ncccn2)cc1 | 8.72
47 | FC(F)c1nc2ccccc2n1-c1nc(N2CCOCC2)nc(N2CCOCC2)n1 | 25.4
48 | CCOP(=O)(OCC)Oc1cc(C)nc(C(C)C)n1 | 99.9
49 | CC(C)c1c(NC(=O)Nc2ccc(Cl)cc2)c(=O)n(-c2ccccc2)n1C | > 120
50 | N#Cc1cc(-c2n[nH]c(-c3ccncc3)n2)ccn1 | 90.6
51 | O=C(Cn1ccnc1[N+](=O)[O-])NCc1ccccc1 | > 120
52 | Cc1cn(C[C@H](N)C(=O)O)c(=O)n(Cc2ccsc2C(=O)O)c1=O | 53.1

Row | Structure (SMILES) | half-life [min]
53 | COc1ccc(CCNc2nc(SCc3ccccc3Cl)nc3ccccc23)cc1OC | 7.1
54 | O=C(c1ccccn1)N(Cc1cccs1)C1(C(=O)NC2CCCCC2)CCCCC1 | 1.6
55 | c1ccc(OCc2ccc(CCCN3CCOCC3)cc2)cc1 | 26.7
56 | CC(C)(C)NCC(O)COc1cccc2c1CCC(=O)N2 (configuration not stated) | > 120
57 | Nc1ncnc2c1ncn2[C@H]1O[C@@H](C(=O)N2CCN(CC(=O)Nc3cccc4c3CNC4=O)CC2)[C@H](O)[C@@H]1O | > 120
58 | CCC(CC)Nc1nc(C)c(-c2ccc(OC(F)(F)F)cc2OC)nc1OC | 20.5
59 | CCOC(=O)Nc1ccc(NCc2ccc(F)cc2)cc1N | > 120
60 | CC(C(=O)O)C1C=CC(C(=O)c2ccccc2)S1 (configuration not stated) | > 120
61 | C[C@]12CC[C@H]3[C@@H](CCC4=CC(=O)CC[C@@]43C)[C@@H]1CC[C@@H]2C(=O)O | > 120
62 | CC(C)(C)Sc1c(CC(C)(C)C(=O)O)n(Cc2ccc(Cl)cc2)c2ccc(OCc3ccc4ccccc4n3)cc12 | 34
63 | CC(C)(O)c1ccc2c(c1)ncn2-c1cccc(-c2ccccc2C#N)c1 | > 120
64 | CC(=O)c1ccc(O)c(C(N)=O)c1 | > 120
65 | CNc1ccc2oc(C[C@H]3O[C@@]4(CC[C@H]3C)O[C@H](C(C)C(=O)c3ccc[nH]3)[C@H](C)C[C@H]4C)nc2c1C(=O)O (some centres not stated) | > 120
66 | COc1ccc(Nc2cc(-c3cnc(N)nc3)nc(N3CCOCC3)n2)cn1 | 39.3
67 | CN1CCC(COc2cnc(-c3cccc(Cn4nc(-c5cccc(C#N)c5)ccc4=O)c3)nc2)CC1 | > 120
68 | COc1ccc(-c2ccc3cc(C(=O)O)ccc3c2)cc1C12CC3CC(CC(C3)C1)C2 | 46.1
69 | CC(C)CCCC(C)N (configuration not stated) | > 120
70 | CNC(=O)O[C@H]1COc2ccc(N3CCN(C4COC4)CC3)cc2[C@@H]1NC(=O)c1ccc(F)cc1 | > 120
71 | O=C(O)c1ccc2[nH]cc(CCCCN3CC=C(c4ccccc4)CC3)c2c1 | > 120
72 | O=C(O)c1cccc(CN2C(=O)/C(=C(\c3ccccc3)c3ccc(Cl)cc3)c3ccccc32)c1 | > 120
73 | COc1ccc(CC(=O)NCC(c2cccs2)S(=O)(=O)c2ccc(Cl)cc2)cc1 (configuration not stated) | 4.19
74 | CCCOc1cc(N)ccc1C(=O)OCCN(CC)CC | 70.3
75 | CC(CCc1ccc(O)cc1)NCC(O)c1ccc(O)cc1 (configuration not stated) | > 120
76 | CC(=O)c1ccc(C(=O)N(Cc2cccnc2)c2nc3c(C)c(C)ccc3s2)cc1 | 6.25
77 | Cn1nnc2c(C(N)=O)ncn2c1=O | 21.1
